Data set [1] relates to MRSA (NCTC 12493). In kind it is cell-based. The procedure: (§1) A measure of 5 × 10^5 CFU/mL of bacterial suspension including 2-fold dilution peptides (ranging from 1 µM to 512 µM) was incubated in 96-well plates for 16–20 h at 37 °C. For the positive and negative control, 200 mg/L of final concentration of norfloxacin and 1% DMSO were applied, respectively. […] Subsequently, 10 µL of the solution in each clear well was dropped on a Mueller–Hinton agar (MHA) plate and incubated at 37 °C for 16–20 h. The lowest concentration without colony growth was considered as the MBCs.
(§2) Mueller–Hinton broth (MHB) at pH 6.0 and 8.0 as well as MHB containing 10% of Fetal Bovine Serum (FBS), 150 mM of NaCl, 1 mM of MgCl2 and 4 µM of FeCl3, respectively, were prepared. In particular, the pathogens were diluted by the preprepared mediums to a final concentration of 5 × 10^5 CFU/mL after growing to the logarithmic phase, and other operations followed the MIC assay.

The subject of data set [2] is E. faecalis (NCTC 12697). In kind it is cell-based. The procedure:
as §1, §2

Data set [3] relates to P. aeruginosa (ATCC 27853). In kind it is cell-based. Here is the method:
as §1, §2

The subject of data set [4] is E. coli (ATCC 8739). Format: cell-based. The procedure: as §1, §2
Data set [5] deals with S. aureus (ATCC CRM 6538). In kind it is cell-based. The procedure:
as §1, §2

Data set [6] has as its system K. pneumoniae (ATCC 43816). In kind it is cell-based. Here is the method:
as §1, §2

The subject of data set [7] is erythrocytes from defibrinated horse blood. Description: Haemolysis assay. To be noted: for haemolytic activity (in words): compared with the preceding peptide of the design series.
Description: (§4) The erythrocytes from defibrinated horse blood (TCS Biosciences Ltd., Buckingham, UK) were used to perform the haemolysis assay, as described previously [27]. Equal volumes of PBS and 2% (v/v) of the non-ionic detergent, Triton X-100 (Sigma–Aldrich, St. Louis, MO, USA) in PBS solution, were used as negative and positive controls, respectively. HC50 was defined as the mean peptide concentration producing 50% haemolysis.
Data set [8] has as its system E. coli (ATCC 8739) biofilm. In kind it is cell-based. The procedure: (§3) The anti-biofilm activities were tested on S. aureus and E. coli, as indicated previously. For the positive and negative control, 20 mg/mL of vancomycin and 1% DMSO were applied, respectively, in both assays. In addition, 0.1% Crystal Violet was used as the biofilm colouring agent.
The test system of data set [9] is S. aureus (ATCC CRM 6538) biofilm. In kind it is cell-based. Here is the method: as §3
Data set [10] deals with erythrocytes from defibrinated horse blood. To be noted: 256 µM.
Description: as §4
The conditions of data set [11]: 50% TFE environment ref 44; cited from earlier work. An excerpt:
As the same situation found in the study of Temporin B KKG6A [31], T1CEh-KK experienced an improvement in antimicrobial activity, especially for the inhibition of the growth of E. coli. In addition, the substitution by proline leads to the weakening of the antimicrobial ability of T1CEh-KKP except for against S. aureus.

Like-named read-outs stand apart in the source and are kept apart here. Ends that are not written are not given here.

Broadly, the MBC is the smallest concentration meeting the test's criterion for killing. Broadly, the MIC is the lowest concentration found to suppress growth. A higher MIC goes with a less susceptible organism. For orientation: HC50 means the concentration giving 50% haemolysis. The low end stands for more damage to red cells, the high end for less damage to red cells.

For the substance FVDLKKIANII-NH2 [Peptide T1CEa-t], the MBC in data set [1] (NCTC 12493), in data set [2] (NCTC 12697), in [3] (ATCC 27853), in data set [4] (ATCC 8739), in data set [5] (ATCC CRM 6538) and in [6] (ATCC 43816) was more than 512 µM in each case. The MIC in [1] (NCTC 12493), in data set [2] (NCTC 12697), in [3] (ATCC 27853), in data set [4] (ATCC 8739), in data set [5] (ATCC CRM 6538) and in data set [6] (ATCC 43816) was more than 512 µM in each case. Also, in data set [7] (horse erythrocytes), the “haemolytic activity (in words)” value was “completely lost”.

Turning to KKWVPWKKIANIL-NH2 [Peptide T1CEh-KKPWW], the MBEC in data set [8] and in data set [9] was more than 256 µM each time. The MBC in [1] (NCTC 12493) was 256 µM; in data set [2] (NCTC 12697), 128 µM; in data set [3] (ATCC 27853) it was 16 µM; in [4] (ATCC 8739), 4 µM; in data set [5] (ATCC CRM 6538), 4 µM; in [6] (ATCC 43816), 4 µM. For the same substance, the MIC in data set [1] (NCTC 12493) was 32 µM; in data set [1] (NCTC 12493, pH 6), 256 µM; in [1] (NCTC 12493, pH 7), 32 µM; in [1] (NCTC 12493, pH 8), 32 µM; in data set [2] (NCTC 12697), 128 µM; in data set [2] (NCTC 12697, pH 6), more than 512 µM. In addition, the MIC in data set [2] (NCTC 12697, pH 7) is 128 µM; in data set [2] (NCTC 12697, pH 8), 64 µM; in data set [3] (ATCC 27853), 16 µM; in data set [3] (ATCC 27853, pH 6), 16 µM; in [3] (ATCC 27853, pH 7), 16 µM; in data set [3] (ATCC 27853, pH 8), 4 µM. Further, the MIC in data set [4] (ATCC 8739) was 4 µM; in data set [4] (ATCC 8739, pH 6), 4 µM; in [4] (ATCC 8739, pH 7), 4 µM; in data set [4] (ATCC 8739, pH 8), 4 µM; in [5] (ATCC CRM 6538), 4 µM; in data set [5] (ATCC CRM 6538, pH 6), 32 µM. Further, the MIC in data set [5] (ATCC CRM 6538, pH 7) stood at 4 µM; in data set [5] (ATCC CRM 6538, pH 8), 4 µM; in data set [6] (ATCC 43816) it was 4 µM; in [6] (ATCC 43816, pH 6), 32 µM; in data set [6] (ATCC 43816, pH 7), 4 µM; in [6] (ATCC 43816, pH 8), 8 µM. Also, the haemolysis rates entry in data set [7] (concentration not stated at the place (gradient of Figure 4)) is on record as “lower than 6%”.

On to KKWVPLKKIANIL-NH2 [Peptide T1CEh-KKPW], for which the MBEC in data set [8] and in data set [9] was more than 256 µM throughout. The MBIC in data set [8] and in [9] was 16 µM throughout. The MBC in data set [1] (NCTC 12493) is 64 µM; in [2] (NCTC 12697), more than 512 µM; in data set [3] (ATCC 27853), 64 µM; in data set [4] (ATCC 8739), 16 µM; in data set [5] (ATCC CRM 6538), 16 µM; in data set [6] (ATCC 43816) it was 16 µM. Moreover, the MIC is 16 µM in data set [1] (NCTC 12493); more than 512 µM in [1] (NCTC 12493, pH 6); 16 µM in data set [1] (NCTC 12493, pH 7); 128 µM in [1] (NCTC 12493, pH 8); more than 512 µM in data set [2] (NCTC 12697); more than 512 µM in data set [2] (NCTC 12697, pH 6). Also, the MIC in [2] (NCTC 12697, pH 7) is more than 512 µM; in [2] (NCTC 12697, pH 8), 256 µM; in data set [3] (ATCC 27853) it was 32 µM; in [3] (ATCC 27853, pH 6), 64 µM; in data set [3] (ATCC 27853, pH 7), 32 µM; in data set [3] (ATCC 27853, pH 8), 32 µM. Also, the MIC in data set [4] (ATCC 8739) was 8 µM; in data set [4] (ATCC 8739, pH 6), 16 µM; in data set [4] (ATCC 8739, pH 7), 8 µM; in [4] (ATCC 8739, pH 8), 8 µM; in data set [5] (ATCC CRM 6538) it was 8 µM; in data set [5] (ATCC CRM 6538, pH 6), more than 512 µM. The MIC in data set [5] (ATCC CRM 6538, pH 7) was 8 µM; in data set [5] (ATCC CRM 6538, pH 8) it was 32 µM; in data set [6] (ATCC 43816), 16 µM; in data set [6] (ATCC 43816, pH 6) it was 256 µM; in data set [6] (ATCC 43816, pH 7), 16 µM; in data set [6] (ATCC 43816, pH 8), 128 µM. Also, the haemolysis rate result in data set [7] (at 256 μM, horse erythrocytes) is recorded as “lower than 10%”.

On to FVDLKKIANIL-NH2 [Peptide T1CEh-t], for which the minimum bactericidal concentration (MBC) in data set [1] (NCTC 12493), in data set [2] (NCTC 12697), in data set [3] (ATCC 27853), in data set [4] (ATCC 8739), in data set [5] (ATCC CRM 6538) and in data set [6] (ATCC 43816) was more than 512 µM in each case. The MIC in data set [1] (NCTC 12493), in data set [2] (NCTC 12697), in [3] (ATCC 27853), in [4] (ATCC 8739), in data set [5] (ATCC CRM 6538) and in data set [6] (ATCC 43816) was more than 512 µM in each case. For the same substance, the “haemolytic activity (in words)” value in data set [7] (horse erythrocytes) is on record as “completely lost”.

For FVDLKKIANILNSIF-NH2 [Temporin-1CEh], in data set [10], the haemolysis rate is reported as 92.3%. Also, the MBEC in [9] is more than 256 µM. For the same substance, the MBIC in data set [9] stood at 64 µM. In addition, the MBC in data set [1] (NCTC 12493) was determined as 16 µM; in data set [2] (NCTC 12697) it was 32 µM; in [3] (ATCC 27853) it was 256 µM; in data set [5] (ATCC CRM 6538), 16 µM; in data set [6] (ATCC 43816) it was 256 µM. For the same substance, the MIC in [1] (NCTC 12493) is 16 µM; in data set [1] (NCTC 12493, pH 6) it was 256 µM; in data set [1] (NCTC 12493, pH 7), 16 µM; in data set [1] (NCTC 12493, pH 8) it was 256 µM; in data set [2] (NCTC 12697), 32 µM; in data set [2] (NCTC 12697, pH 6), more than 512 µM. For the same substance, the MIC in [2] (NCTC 12697, pH 7) was 32 µM; in data set [2] (NCTC 12697, pH 8), more than 512 µM; in [3] (ATCC 27853) it was 128 µM; in data set [3] (ATCC 27853, pH 6), more than 512 µM; in [3] (ATCC 27853, pH 7), 128 µM; in data set [3] (ATCC 27853, pH 8) it was more than 512 µM. The MIC was 128/128 μM in data set [4] (ATCC 8739); more than 512 µM in [4] (ATCC 8739, pH 6); 128 µM in [4] (ATCC 8739, pH 7); more than 512 µM in data set [4] (ATCC 8739, pH 8); 8 µM in data set [5] (ATCC CRM 6538); 128 µM in data set [5] (ATCC CRM 6538, pH 6). The minimum inhibitory concentration (MIC) in [5] (ATCC CRM 6538, pH 7) is 8 µM; in data set [5] (ATCC CRM 6538, pH 8) it was 128 µM; in data set [6] (ATCC 43816) it was 256 µM; in data set [6] (ATCC 43816, pH 6) it was more than 512 µM; in data set [6] (ATCC 43816, pH 7), 256 µM; in data set [6] (ATCC 43816, pH 8) it was more than 512 µM. In [7] (mean peptide concentration producing 50% haemolysis, horse erythrocytes), this substance had an HC50 of 152.6 µM.

As for KKFVDLKKIANIL-NH2 [Peptide T1CEh-KK], the MBC in [1] (NCTC 12493) was more than 512 µM; in data set [2] (NCTC 12697) it was more than 512 µM; in [3] (ATCC 27853), 256 µM; in data set [4] (ATCC 8739), 16 µM; in data set [5] (ATCC CRM 6538), more than 512 µM; in data set [6] (ATCC 43816) it was 128 µM. Besides, the MIC in [1] (NCTC 12493) was more than 512 µM; in [2] (NCTC 12697), 64 µM; in data set [3] (ATCC 27853), 256 µM; in data set [4] (ATCC 8739) it was 8 µM; in data set [5] (ATCC CRM 6538), 256 µM; in [6] (ATCC 43816) it was 128 µM. In addition, in data set [7] (horse erythrocytes), the “haemolytic activity (in words)” value was “maintained the low level of haemolysis”.

Turning to Buforin II, the helicity percent in [11] was 43%.

Regarding KKFVPLKKIANIL-NH2 [Peptide T1CEh-KKP], the MBC is 256 µM in data set [1] (NCTC 12493); more than 512 µM in data set [2] (NCTC 12697); more than 512 µM in data set [3] (ATCC 27853); 128 µM in data set [4] (ATCC 8739); 64 µM in [5] (ATCC CRM 6538); more than 512 µM in [6] (ATCC 43816). Moreover, the MIC is 256 µM in [1] (NCTC 12493); more than 512 µM in data set [2] (NCTC 12697); 512 µM in data set [3] (ATCC 27853); 128 µM in data set [4] (ATCC 8739); 32 µM in data set [5] (ATCC CRM 6538); more than 512 µM in [6] (ATCC 43816).
